Entries after “also recorded” stand apart in the source; their conditions may differ. Where two headings read alike, the source gives them in different places. Non-standard residues stand in square brackets, D forms with d. Residues, ends and D or L forms follow the SMILES beside them. 1Nal = N[C@@H](Cc1cccc2ccccc12)C(=O)O; NMeF = CN[C@@H](Cc1ccccc1)C(=O)O; Cha = N[C@@H](CC1CCCCC1)C(=O)O; dCha = N[C@H](CC1CCCCC1)C(=O)O
B1: C5a: 74 amino acid protein derived from the fifth component of serum complement during complement activation (protein, UniProt P01031 678-751, looked up)
C5a anaphylatoxin: TLQKKIEEIAAKYKHSVVKKCCYDGACVNNDETCEQRAARISLGPRCIKAFTECCVVASQLRANISHKDMQLGR
modifications: C5a anaphylatoxin

Legend:
[1] = target: T1, C5a receptor (Homo sapiens, UniProt P21730); assay: biochemical; type: binding
T1 construct: followed by a 20 μL aliquot of neutrophil membrane; endogenous in cells
T1 sequence (P21730 1-350): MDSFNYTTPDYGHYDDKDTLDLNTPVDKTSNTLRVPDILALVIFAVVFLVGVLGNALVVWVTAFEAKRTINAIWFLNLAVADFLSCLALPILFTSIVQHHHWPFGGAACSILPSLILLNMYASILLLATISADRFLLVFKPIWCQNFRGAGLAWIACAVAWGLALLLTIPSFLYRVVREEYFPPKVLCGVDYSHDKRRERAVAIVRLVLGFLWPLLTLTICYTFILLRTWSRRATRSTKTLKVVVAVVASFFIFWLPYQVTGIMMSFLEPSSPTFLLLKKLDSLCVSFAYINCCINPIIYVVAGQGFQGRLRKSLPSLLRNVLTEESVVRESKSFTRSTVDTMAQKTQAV
Experimental: Initially, we attempted to conduct binding studies with ^125 I radiolabeled C009: ^125 I-Tyr Phe Lys Ala Cha Cha Leu dPhe Arg, SEQ.ID:1:, wherein Cha is cyclohexylalanine, and dPhe is the D isomer of phenylalanine. This compound is a C5a agonist displaying a Ki for C5a of 8 nM. The presence of the tyrosine allowed us to radioiodinate the peptide and establish a binding assay in which both C5a (IC50=0.1 nM) and unlabeled C009 (IC50 =10 nM) inhibit the binding of ^125 I-C009 with concentration dependencies similar to those obtained from competition experiments against ^125 I-C5a.
In FIG. 1, unlabeled C013 is used to compete with ^125 I-labeled C5a. […] In FIG. 2, the C013 is ^125 I labeled. Unlabeled C5a and unlabeled C013 are each used to compete the labeled C013 from C5a binding sites on the membranes. […] In FIG. 3a, ^125 I-C5a is competed from its binding site by unlabeled C064 and unlabeled, natural C5a (as opposed to recombinant C5a, which, however, may also obviously may be used for these purposes). […] In FIG. 3b, the inverse experiment is shown, wherein ^125 I-C064 is displaced by unlabeled C064 and unlabeled nC5a.
Peptide (5 nMoles) are added to 40μL of 0.1 M sodium phosphate, pH 7.6, in a tube, followed by 2 mCi of ^125 I in 20 μL. 10 μL of a freshly made 0.5 mg/mL solution of chloramine T is then added. After 30 seconds of incubation, 10 μL of a freshly prepared 2 mg/mL solution of Na2 S2 O3 is added, the tube is vortexed, and the sample loaded onto a Vydac C4 reverse phase column. The column is developed with a TFA/acetonitrile gradient and the iodinated peptide is isolated. The material is stored at 4° C. in the elution buffer.
To 205 μL binding buffer (50 mM HEPES, pH 7.2, containing 5 mM MgCl2, 1mM CaCl2, 0.5% BSA) in a polypropylene tube is added 30,000CPM of the ^125 I peptide in 20 μL, and 5 μL of a known dilution of the test compound or diluent, followed by a 20 μL aliquot of neutrophil membrane [equivalent to 500,000 neutrophils; Rollins, T.E. et al., J. Biol Chem. 260:7157 (1985); see also U.S. Pat. No. 5,177,190, herein incorporated by reference].
The assay mixture is incubated for 2 hours at 29° C. Binding buffer (2 mL) is then added, the tube is vortexed, and the contents filtered over a Wattmann GF/C filter soaked in 0.33% polyethylenimine. An additional aliquot of binding buffer (2 mL) is added to the tube to rinse the tube, and is then used to wash the filter. The filters are removed from the apparatus and counted. Non-specific backgrounds are determined by performing assays in the presence of either 10 nM C5a, or 1 μM unlabeled peptide. Compounds which inhibit the binding of the labeled peptide are considered to be potential active compounds.

[2] = test system: human neutrophils; assay: Chemotaxis, Boyden Chamber assay; type: cell-based; details: FIG. 6A
Experimental: FIG. 6A and 6B. Chemotaxis and G protein activation elicited by the hexapeptides.
This assay is a modification of the procedure described by Sims et. al. (Sims, T. J., Geissler, F. T. and Page, R. C. (1985) J. lmmunol. Meth. 78, 279-291 ). Chemotaxis was assayed in a 48 well Neuro Probe chamber (Neuro Probe, Bethesda, MD) using ^51 Cr-labelled cells. Varying concentrations of C5a or peptide were placed in the lower chamber which was successively covered by a 100 μm nitrocellulose membrane (Neuro Probe, Bethesda, Md.) and two 3 μm polycarbonate filters. After preforming a gradient for 30 minutes at 37° C., 2×10^5 labelled cells were added to the upper chamber and allowed to migrate at 37° C. for one hour. The upper two polycarbonate filters were then discarded and the formed wells cut from the nitrocellulose membrane. The radioactivity present in these filters is a measure of the number of cells that migrated through both polycarbonate filters.
A plot of the initial concentration of agent placed in the lower chamber against the number of cells which migrate (measured by counting the ^51 Cr-labelled cells) is shown in FIG. 6A. For C5a, maximal response occurs at 10 nM. Since the cells migrate in response to the concentration gradient established across the filters, the actual stimulatory concentration is much lower than the nominal value plotted on the abcissa in FIG. 6A.

[3] = test system: degranulation; details: Mollison et al., cited from earlier work
[4] = test system: chemokinetic response; details: Mollison et al.; cited from earlier work
[5] = test system: neutrophils; details: Drapeau et al.; cited from earlier work
[6] = test system: C5a receptor; details: literature; cited from earlier work
[7] = test system: human neutrophils; assay: Inhibition of C5a induced degranulation (MPO release); type: cell-based
Experimental: (§1) FIG. 7A and 7B. […] These concentrations of the stimulating agents released 22% and 19% of the total cellular MPO, respectively.
(§2) This assay was performed on human neutrophils as previously reported and it is a measure of C5a or peptide induced exocytosis (Rollins, T. E. and Springer, M. S. (1985) J. Biol. Chem. 260, 7157-7160).

[8] = test system: human neutrophils; assay: Inhibition of IL-8 induced degranulation (specificity control); type: cell-based; details: 8 nM IL-8, FIG. 7A
Experimental: as §1, §2

[9] = labeled ligand 125I-C009, read-out: IC50 for inhibition of binding of 125I-C009
[10] = nominal initial concentration in lower chamber

Molecule	IC50 [1, 9] [nM]	chemotactic response in words [2]	concentration of maximal chemotactic response (maximal migration) [2, 10]	degranulating activity in words [3]	further results
CC(C)C[C@H](NC(=O)[C@H](CC1CCCCC1)NC(=O)[C@H](CC1CCCCC1)NC(=O)[C@H](C)NC(=O)[C@H](CCCCN)NC(=O)[C@H](Cc1ccccc1)NC(=O)[C@@H](N)Cc1ccc(O)cc1)C(=O)N[C@H](Cc1ccccc1)C(=O)N[C@@H](CCCNC(=N)N)C(=O)O [C009, Tyr Phe Lys Ala Cha Cha Leu dPhe Arg] (H-YFKA[Cha][Cha]L[dF]R-OH)	10				change of binding affinity by radioiodination [1]: about a four-fold loss in binding affinity
CN[C@@H](Cc1ccccc1)C(=O)N[C@@H](CCCCN)C(=O)N1CCC[C@H]1C(=O)N[C@H](CC1CCCCC1)C(=O)N[C@@H](Cc1ccccc1)C(=O)N[C@H](CCCNC(=N)N)C(=O)O [C026, NMeF--K--P-dCha-F-dR] (H-[NMeF]KP[dCha]F[dR]-OH)		full agonist in chemotaxis; also recorded: strong chemoattractants; also recorded: as chemotactic as C028	1 µM	not only failed to stimulate degranulation, it acted as an antagonist for this property	degranulating activity in words ([3]; listed as NMeF--K--P-dCha-F-dR): totally devoid of degranulating activity; chemokinetic response [4]: only a small chemokinetic response; stimulation of superoxide release from neutrophils [5]: failed to stimulate superoxide release from neutrophils; agonist properties in words [6]: reduced agonist properties; also recorded: behaved as an agonist in other assays
CN[C@@H](Cc1ccccc1)C(=O)N[C@@H](CCCCN)C(=O)N1CCC[C@H]1C(=O)N[C@H](CC1CCCCC1)C(=O)N[C@@H](CC1CCCCC1)C(=O)N[C@H](CCCNC(=N)N)C(=O)O [C028, MePhe Lys Pro dCha Cha dArg] (H-[NMeF]KP[dCha][Cha][dR]-OH)		strong chemoattractants	1 µM	exhibited normal degranulating activity	
CN[C@@H](Cc1ccccc1)C(=O)N[C@@H](CCCCN)C(=O)N1CCC[C@H]1C(=O)N[C@H](CC1CCCCC1)C(=O)N[C@@H](Cc1cccc2ccccc12)C(=O)N[C@H](CCCNC(=N)N)C(=O)O [C061] (H-[NMeF]KP[dCha][1Nal][dR]-OH)		good chemotactic activity; also recorded: elicits as great an accumulation of cells as either C026, or C028, or for that matter, C5a	about 100 μM		
CN[C@@H](Cc1ccccc1)C(=O)N[C@@H](CCCCN)C(=O)N1CCC[C@H]1C(=O)N[C@H](CC1CCCCC1)C(=O)N[C@@H](Cc1c[nH]c2ccccc12)C(=O)N[C@H](CCCNC(=N)N)C(=O)O [C089]		little or no ability to stimulate a chemotactic response			inhibition of C5a stimulated degranulation in words [7]: inhibits C5a stimulated degranulation; IC50 ([7]; FIG. 7A, challenge 0.4 nM C5a): 100 nM; effect on IL-8 induced degranulation [8]: little effect on IL-8 induced degranulation
B1	0.1				IC50 ([1]; labeled ligand 125I-C013, read-out: IC50 exhibited by the unlabeled ligand): 0.15 nM; IC50 ([1]; labeled ligand 125I-C064, read-out: IC50 exhibited by the unlabeled ligand): 0.093 nM; concentration of maximal chemotactic response [2, 10]: 10 nM
